Data on 9 compounds can be found in patent US20230391760A1, “HETEROCYCLIC GLP-1 AGONISTS” (Gasherbrum Bio, Inc., priority 2020, published 2023).

By EC50 is commonly meant the concentration giving half of the maximal effect. High values mean lower potency in that assay, low ones higher potency in that assay.

This assay concerns the target GLP-1 Receptor (Homo sapiens, UniProt P43220). Kind of assay: GLP-1R agonist cAMP stimulation assay (HEK293/GLP1R/CRE-LUC cells, cAMP dynamic 2 Kit). In kind it is cell-based. The settings on record: HEK293/CRE-Luc cell line stably expressing the GLP-1 Receptor, 30 min at 37° C. As to the method: Activation of GLP-1 receptor is known to stimulate cyclic AMP (cAMP) production in cells which indicates primary coupling to the Gαs subunit of the G protein heterotrimeric complex. […] To optimize functional activity directed toward Gαs coupling, a HEK293/CRE-Luc cell line developed by HDB stably expressing the GLP-1 Receptor was used. 200×concentration of compound working solutions were prepared (Agilent Technologies Bravo) with 1/2 log serial dilution in 384-well Echo LDV plate (Labcyte, Cat #LP-0200). 50 nL/well 200× concentration of compound working solutions were moved to 384-well white low volume plate (Greiner,Cat #784075) using Labcyte ECHO550. 1×10^5 cells/mL HEK293/GLP1R/CRE-LUC(HD Biosciences) cell suspensions prepared with assay buffer[DPBS containing 0.5 mM IBMX(Sigma, Cat #15879) and 0.1% BSA (GENVIEW, Cat #FA016-100 g)], 10 uL cell suspensions were added to each well of previous generated assay plate which already contains 50 nl compound at 200×concentration using ThermoFisher Multidrop Combi (1000 cells/well). Seal the plate and incubate at 37° C. with 5% CO2 for 30 min. After incubation the cAMP assay signal was generated using cAMP dynamic 2 Kit (Cisbio). 5 μL cAMP-d2 working solution was added to each well, followed with 5 μL Anti-cAMP antibody-cryptate working solution added to each well using ThermoFisher Multidrop Combi. Incubate at room temperature for 1 hour protected from light.

Sequence of GLP-1 Receptor (P43220 24-463, species assumed): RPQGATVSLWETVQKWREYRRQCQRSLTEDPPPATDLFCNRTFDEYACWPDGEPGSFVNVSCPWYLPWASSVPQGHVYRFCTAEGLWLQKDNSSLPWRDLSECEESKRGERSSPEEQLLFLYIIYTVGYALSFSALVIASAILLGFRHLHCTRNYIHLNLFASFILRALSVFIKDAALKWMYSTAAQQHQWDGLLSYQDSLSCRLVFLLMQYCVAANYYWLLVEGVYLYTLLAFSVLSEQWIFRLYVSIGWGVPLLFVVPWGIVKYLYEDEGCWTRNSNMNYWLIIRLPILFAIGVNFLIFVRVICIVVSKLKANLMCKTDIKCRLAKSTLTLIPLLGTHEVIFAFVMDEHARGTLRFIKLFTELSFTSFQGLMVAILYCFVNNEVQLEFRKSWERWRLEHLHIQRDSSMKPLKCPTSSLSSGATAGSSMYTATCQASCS

`O=C(CC1CC1)Nc1ccc2c(c1)nc(CN1CCC(c3cccc(OCc4ccc(Cl)cc4F)n3)CC1)n2C[C@@H]1CCO1` [Compound 106a, (S)—N-(2-((4-(6-((4-chloro-2-fluorobenzyl)oxy)pyridin-2-yl)piperidin-1-yl)methyl)-1-(oxetan-2-ylmethyl)-1H-benzo[d]imidazol-5-yl)-2-cyclopropylacetamide] showed a 50% effective concentration (EC50) of 1.19 nM.
Under `Fc1cc(Cl)ccc1COc1cccc(C2CCN(Cc3nc4cc(-c5ccn[nH]5)ccc4n3C[C@@H]3CCO3)CC2)n1` [Compound 215a, 2-[(4-{6-[(4-chloro-2-fluorophenyl)methoxy]pyridin-2-yl}piperidin-1-yl)methyl]-1-{[(2S)-oxetan-2-yl]methyl}-5-(1H-pyrazol-5-yl)-1H-1,3-benzodiazole] stands 2.7 nM; under `O=C(Nc1ccc2c(c1)nc(CN1CCC(c3cccc(OCc4ccc(Cl)cc4F)n3)CC1)n2C[C@@H]1CCO1)c1ccncc1` [Compound 171a, N-{2-[(4-{6-[(4-chloro-2-fluorophenyl)methoxy]pyridin-2-yl}piperidin-1-yl)methyl]-1-{[(2S)-oxetan-2-yl]methyl}-1H-1,3-benzodiazol-5-yl}pyridine-4-carboxamide], 0.27 nM.
Under `Fc1cc(Cl)ccc1COc1ccc(F)c(N2CCN(Cc3nc4cc(-c5nnc(C(F)(F)F)[nH]5)ncc4n3C[C@@H]3CCO3)CC2)n1` [Compound 501a, 1-{6-[(4-chloro-2-fluorophenyl)methoxy]-3-fluoropyridin-2-yl}-4-[(3-{[(2S)-oxetan-2-yl]methyl}-6-[5-(trifluoromethyl)-4H-1,2,4-triazol-3-yl]-3H-imidazo[4,5-c]pyridin-2-yl)methyl]piperazine] stands 0.038 nM; under `N#Cc1ccc(COc2cc(C3=CCN(Cc4nc5cc(-c6nnc(C(F)(F)F)[nH]6)ncc5n4C[C@@H]4CCO4)CC3)ccc2F)c(F)c1` [Compound 300a, 3-fluoro-4-[(2-fluoro-5-{1-[(3-{[(2S)-oxetan-2-yl]methyl}-6-[5-(trifluoromethyl)-4H-1,2,4-triazol-3-yl]-3H-imidazo[4,5-c]pyridin-2-yl)methyl]-1,2,3,6-tetrahydropyridin-4-yl}phenoxy)methyl]benzonitrile], 0.1 nM.
Under `Cn1cc(-c2ccc3c(c2)nc(CN2CCC(c4cccc5c4OC(C)(c4ccc(Cl)cc4F)O5)CC2)n3C[C@@H]2CCO2)cn1` (stereo partly drawn) [Compound 233a, 2-((4-(2-(4-chloro-2-fluorophenyl)-2-methylbenzo[d][1,3]dioxol-4-yl)piperidin-1-yl)methyl)-5-(1-methyl-1H-pyrazol-4-yl)-1-(((S)-oxetan-2-yl)methyl)-1H-benzo[d]imidazole] stands 4 nM; under `Cc1nnc(-c2cc3nc(CN4CCC(c5cccc6c5O[C@@](C)(c5ccc(Cl)cc5F)O6)CC4)n(C[C@@H]4CCO4)c3nn2)[nH]1` [Compound 280a, 4-[(2S)-2-(4-chloro-2-fluorophenyl)-2-methyl-2H-1,3-benzodioxol-4-yl]-1-{[3-(5-methyl-4H-1,2,4-triazol-3-yl)-7-{[(2S)-oxetan-2-yl]methyl}-7H-imidazo[4,5-c]pyridazin-6-yl]methyl}piperidine], 0.11 nM.
Take `CC1(c2ccc(Cl)cc2F)Oc2cccc(C3CCN(Cc4nc5cc(-c6cn(CCS(C)(=O)=O)nn6)ccc5n4C[C@@H]4CCO4)CC3)c2O1` (stereo partly drawn) [Compound 250a, 2-({4-[2-(4-chloro-2-fluorophenyl)-2-methyl-2H-1,3-benzodioxol-4-yl]piperidin-1-yl}methyl)-5-[1-(2-methanesulfonylethyl)-1H-1,2,3-triazol-4-yl]-1-{[(2S)-oxetan-2-yl]methyl}-1H-1,3-benzodiazole]: the EC50 amounted to 0.11 nM.
Under `C[C@]1(c2ccc(Cl)cn2)Oc2cccc(C3CCN(Cc4nc5cc(-c6n[nH]c(C(F)(F)F)n6)cnc5n4C[C@@H]4CCO4)CC3)c2O1` (single isomer, unassigned) [Compound 333c] stands 0.95 nM.
